Laboratory results taken from patent US20100168182A1, “COMPOUNDS AND COMPOSITIONS AS KINASE INHIBITORS” (IRM LLC, priority 2006, published 2010).

Legend:
[1] = molecular target: T1, Ba/F3 cells transformed with human Tel-TrkA (ETV6-NTRK1) (Homo sapiens, UniProt P04629); assay: Inhibition of cellular TrkA dependent proliferation (Ba/F3 Tel-TrkA); type: cell-based; conditions: urea versus amide linkage
T1 construct: expressed in transfected cells; host or cells: Ba/F3 murine hematopoietic progenitor cell line; the other entry of the earlier key: ETV6 (P41212, Transcription factor ETV6)
Method: (§1) Inhibition of Cellular TrkA, trkB or TrkC Dependent Proliferation
(§2) The cell line used is the Ba/F3 murine hematopoietic progenitor cell line transformed with human Tel-TrkA, Tel-TrkB or Tel-TrkC cDNAs (Ba/F3 EN A/B/C). These cells are maintained in RPMI/10% fetal bovine serum (RPMI/F B S) supplemented with penicillin 50 μg/mL, streptomycin 50 μg/mL and L-glutamine 200 mM. Untransformed Ba/F3 cells are similarly maintained with the addition 5 ng/ml of murine recombinant IL3.
(§3) 50 μl of a Ba/F3 or Ba/F3 EN A/B/C cell suspension are plated in Greiner 384 well microplates (white) at a density of 2000 cells per well. 50 nl of serially diluted test compound (1 0-0.0001 mM in DMSO solution) is added to each well. […] The emited luminiscence is quantified using the Acquest™ system (Molecular Devices).
(§4) Compounds of the invention are tested for their antiproliferative effect on Ba/F3 cells expressing either Tel-TrkA, Tel-TrkB or Tel-TrkC and an additional panel of 34 selected diverse kinases activated by fusion to the dimerizing partners Bcr or Tel (Abl, AlK, BMX, EphA3, EphB2, FGFR2, FGFR3, FGFR4, FGR, FLT1, FLT3, FLT4, FMS, IGF1R, InsR, JAK1, JAK2, JAK3, KDR, Kit, Lck, Lyn, MER, MET, PDGFRb, RET, RON, Ros-1, Src, Syk, TIE2, TYK2, Tie1, ZAP70). […] The IC50 values of the compounds in the different cell lines were determined from the dose response curves obtained as describe above.

[2] = molecular target: T2, Ba/F3 cells transformed with human Tel-TrkB (ETV6-NTRK2) (Homo sapiens, UniProt Q16620); assay: Inhibition of cellular TrkB dependent proliferation (Ba/F3 Tel-TrkB); type: cell-based; conditions: urea versus amide linkage
T2 construct: expressed in transfected cells; host or cells: Ba/F3 murine hematopoietic progenitor cell line; the other entry of the earlier key: ETV6 (P41212, Transcription factor ETV6)
Method: as §1, §2, §3, §4

[3] = test system: Ba/F3 cells transformed with human Tel-TrkC (ETV6-NTRK3); assay: Inhibition of cellular TrkC dependent proliferation (Ba/F3 Tel-TrkC); type: cell-based; conditions: urea versus amide linkage
Method: as §1, §2, §3, §4

[4] = Measuring bioavailability: plasma concentration in mice; type: in vivo, male Balb/c mice; conditions: ratio compound 17 / compound A
Method: Five- to six-week old male Balb/c mice are housed at room temperature (18 to 22° C.) and humidity in the range 40-70%. The animal weights at the time of compound administration range from 20 to 25 grams. The mice are fed a normal diet and have free access to water at all times, before and during experiments. Fasted animals are studied on an infrequent basis. To maximize drug absorption via oral gavage and/or study food effects, animals are fasted the night before dosing and 4 hours thereafter. Animal experiments are performed according to the Animal Welfare Act and the Guide for the Care and Use of Laboratory Animals approved by the Institutional Animal Care and Use Committee (IACUC).
Test compounds are dissolved in a vehicle for dosing at a final concentration of 0.5 to 10 mg/mL. Test compounds are dosed intravenously via the lateral tail vein and orally using a gavage needle. Dosing procedures, dosing volumes, and the selection of dosing vehicles or formulations adhered to the Guidelines issued by the Novartis Pharmacology Council entitled “Preparation and Administration of Experimental Formulation in Pre-ESC Phase”. Briefly, i.v. doses are administered in solutions that are neutral and isotonic aqueous based and oral doses are administered in either solution (with or without co-solvent) or suspension.
Blood samples are drawn via retro orbital sinus. For ease of handling, animals are sometimes anesthetized under isoflurane vapor. Approximately five 50 μl samples of blood are removed each sampling time.
Pharmacokinetic parameters are calculated by non-compartmental regression analysis using Winnonlin 4.0 software (Pharsight, Mountain View, Calif., USA). The typical intravenous and oral dosing study in mice would results in the reporting of the following pharmacokinetic parameters: i.v. dosing: Vss, CL, AUC, Cmax, Tmax, Clast, Tlast and T1/2; and p.o. dosing: F, AUC, Cmax, Tmax, Clast, Tlast and T1/2.

T1 sequence (P04629 510-796 limits assumed): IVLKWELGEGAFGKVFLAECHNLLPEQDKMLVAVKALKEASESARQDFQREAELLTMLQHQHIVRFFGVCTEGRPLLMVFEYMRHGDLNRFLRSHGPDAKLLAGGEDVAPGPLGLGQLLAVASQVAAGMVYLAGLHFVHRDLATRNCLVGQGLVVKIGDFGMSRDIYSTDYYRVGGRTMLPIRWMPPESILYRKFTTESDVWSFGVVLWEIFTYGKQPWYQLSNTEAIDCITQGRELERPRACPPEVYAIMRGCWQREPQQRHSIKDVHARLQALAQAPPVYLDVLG
T2 sequence (Q16620 538-822 limits assumed): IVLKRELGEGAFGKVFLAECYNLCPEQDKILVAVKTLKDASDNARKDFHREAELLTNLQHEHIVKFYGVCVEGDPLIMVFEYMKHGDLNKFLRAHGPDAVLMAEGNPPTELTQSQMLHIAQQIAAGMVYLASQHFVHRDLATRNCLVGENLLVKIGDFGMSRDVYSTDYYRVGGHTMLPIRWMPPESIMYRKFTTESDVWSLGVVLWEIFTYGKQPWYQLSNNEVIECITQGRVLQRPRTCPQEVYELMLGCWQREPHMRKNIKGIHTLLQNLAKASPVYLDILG

| potency for TrkA relative to the equivalent amide-linked compound (compound A) [1] | potency for TrkB relative to the equivalent amide-linked compound (compound A) [2] | plasma concentration relative to compound A ([4]; at 30 minutes) [times] | plasma concentration relative to compound A ([4]; at 1 hour) [times] | plasma concentration relative to compound A ([4]; at 3 hours) [times] | plasma concentration relative to compound A ([4]; at 5 hours) [times] | melting point [°C] | SMILES | potency for TrkC relative to the equivalent amide-linked compound (compound A) [3] |
| --- | --- | --- | --- | --- | --- | --- | --- | --- |
| at least 132 fold | at least 132 fold | 2.2 | 4.1 | 4.7 | 2.3 |  | O=C(Nc1cccc(Nc2ccc3c(c2)NC(=O)/C3=C\c2ccc[nH]2)c1)Nc1ccc(F)cc1F [Compound 17, 1-(2,4-Difluoro-phenyl)-3-{3-[2-oxo-3-(1H-pyrrol-2-ylmethylene)-2,3-dihydro-1H-indol-6-ylamino]-phenyl}-urea] | at least 132 fold |
|  |  |  |  |  |  | 253 to 256 | O=C(Nc1cccc(Nc2ccc3c(c2)NC(=O)/C3=C\c2ccc[nH]2)c1)Nc1cccc(C(F)(F)F)c1 [Example 1, 1-{3-[2-oxo-3-(1H-pyrrol-2-ylmethylene)-2,3-dihydro-1H-indol-6-ylamino]phenyl}-3-(3-trifluoromethylphenyl)urea] |  |
|  |  |  |  |  |  | 224 to 226 | O=C(Nc1cccc(Nc2ccc3c(c2)NC(=O)/C3=C\c2ccc[nH]2)c1)Nc1cc(F)c(F)cc1F [Example 3, 1-{3-[2-oxo-3-(1H-pyrrol-2-ylmethylene)-2,3-dihydro-1H-indol-6-ylamino]phenyl}-3-(2,4,5-trifluorophenyl)urea] |  |
